Experimental data: ChEMBL document CHEMBL5465560, “Selectivity Literature for EUbOPEN Chemogenomic Library” (2024)

Tests used:
[1] = biological target: T1, Mitogen-activated protein kinase kinase kinase 7 (Homo sapiens) (UniProt O43318); assay: Selectivity interaction (Kinase panel (Invitrogen)) EUB0000639a MAP3K7; details: at 200 nM
T1 sequence (whole entry): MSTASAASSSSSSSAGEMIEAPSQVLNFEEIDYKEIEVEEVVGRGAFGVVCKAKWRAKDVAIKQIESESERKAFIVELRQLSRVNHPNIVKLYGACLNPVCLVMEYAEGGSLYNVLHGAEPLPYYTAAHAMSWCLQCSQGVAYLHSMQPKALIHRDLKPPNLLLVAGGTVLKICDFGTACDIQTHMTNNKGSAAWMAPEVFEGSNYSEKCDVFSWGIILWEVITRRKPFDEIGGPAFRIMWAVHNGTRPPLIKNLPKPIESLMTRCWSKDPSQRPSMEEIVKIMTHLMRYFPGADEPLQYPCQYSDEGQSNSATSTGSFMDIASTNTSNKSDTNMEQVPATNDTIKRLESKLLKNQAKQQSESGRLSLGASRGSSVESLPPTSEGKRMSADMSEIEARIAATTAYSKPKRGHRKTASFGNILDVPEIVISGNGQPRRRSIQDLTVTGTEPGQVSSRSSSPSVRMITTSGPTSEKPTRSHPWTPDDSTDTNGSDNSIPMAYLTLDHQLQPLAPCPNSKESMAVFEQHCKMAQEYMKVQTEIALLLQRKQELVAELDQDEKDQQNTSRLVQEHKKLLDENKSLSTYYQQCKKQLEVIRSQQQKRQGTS

[2] = biological target: T2, Serine/threonine-protein kinase NLK (Homo sapiens) (UniProt Q9UBE8); assay: Selectivity interaction (Kinase panel (Invitrogen)) EUB0000639a NLK; details: at 200 nM
T2 sequence (whole entry): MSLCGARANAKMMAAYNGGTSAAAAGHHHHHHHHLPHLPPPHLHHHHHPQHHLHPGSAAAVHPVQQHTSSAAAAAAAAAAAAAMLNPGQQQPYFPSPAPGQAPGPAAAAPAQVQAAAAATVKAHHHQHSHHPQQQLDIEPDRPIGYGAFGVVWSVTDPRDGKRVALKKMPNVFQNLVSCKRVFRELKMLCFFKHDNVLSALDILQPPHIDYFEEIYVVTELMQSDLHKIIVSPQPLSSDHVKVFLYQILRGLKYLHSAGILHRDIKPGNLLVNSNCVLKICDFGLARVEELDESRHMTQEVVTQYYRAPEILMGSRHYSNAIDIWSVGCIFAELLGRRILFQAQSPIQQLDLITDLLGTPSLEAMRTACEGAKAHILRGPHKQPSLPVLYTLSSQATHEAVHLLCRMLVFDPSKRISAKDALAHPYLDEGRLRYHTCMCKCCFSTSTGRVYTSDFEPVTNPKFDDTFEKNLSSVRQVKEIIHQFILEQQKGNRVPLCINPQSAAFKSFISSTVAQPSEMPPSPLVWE

[3] = biological target: T3, Mitogen-activated protein kinase kinase kinase kinase 2 (Homo sapiens) (UniProt Q12851); assay: Selectivity interaction (Kinase panel (Invitrogen)) EUB0000639a MAP4K2; details: at 200 nM
T3 sequence (whole entry): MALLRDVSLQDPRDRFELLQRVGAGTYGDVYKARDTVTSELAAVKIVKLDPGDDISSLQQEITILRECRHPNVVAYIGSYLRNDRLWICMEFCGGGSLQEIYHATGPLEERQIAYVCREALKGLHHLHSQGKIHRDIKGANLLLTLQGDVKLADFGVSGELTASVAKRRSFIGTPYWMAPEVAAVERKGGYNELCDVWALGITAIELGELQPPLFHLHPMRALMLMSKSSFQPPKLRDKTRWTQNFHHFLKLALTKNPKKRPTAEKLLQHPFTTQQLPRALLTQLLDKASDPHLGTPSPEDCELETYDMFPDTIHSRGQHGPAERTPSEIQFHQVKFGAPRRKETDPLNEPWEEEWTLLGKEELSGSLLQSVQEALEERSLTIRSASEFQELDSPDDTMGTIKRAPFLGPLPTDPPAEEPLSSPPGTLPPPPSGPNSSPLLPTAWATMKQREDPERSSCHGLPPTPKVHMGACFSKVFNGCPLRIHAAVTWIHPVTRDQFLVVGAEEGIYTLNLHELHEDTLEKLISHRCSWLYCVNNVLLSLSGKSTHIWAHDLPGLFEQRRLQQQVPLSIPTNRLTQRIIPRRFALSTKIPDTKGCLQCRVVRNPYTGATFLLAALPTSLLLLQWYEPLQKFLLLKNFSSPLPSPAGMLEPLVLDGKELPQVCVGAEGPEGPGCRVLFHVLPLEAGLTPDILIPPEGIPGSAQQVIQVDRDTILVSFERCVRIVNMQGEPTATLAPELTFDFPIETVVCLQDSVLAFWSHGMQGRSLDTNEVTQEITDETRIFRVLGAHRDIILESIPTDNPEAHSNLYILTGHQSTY

[4] = biological target: T4, Serine/threonine-protein kinase D2 (Homo sapiens) (UniProt Q9BZL6); assay: Selectivity interaction (KinomeScan (DiscoverX)) EUB0000595a PRKD2; details: at 10 µM
T4 sequence (whole entry): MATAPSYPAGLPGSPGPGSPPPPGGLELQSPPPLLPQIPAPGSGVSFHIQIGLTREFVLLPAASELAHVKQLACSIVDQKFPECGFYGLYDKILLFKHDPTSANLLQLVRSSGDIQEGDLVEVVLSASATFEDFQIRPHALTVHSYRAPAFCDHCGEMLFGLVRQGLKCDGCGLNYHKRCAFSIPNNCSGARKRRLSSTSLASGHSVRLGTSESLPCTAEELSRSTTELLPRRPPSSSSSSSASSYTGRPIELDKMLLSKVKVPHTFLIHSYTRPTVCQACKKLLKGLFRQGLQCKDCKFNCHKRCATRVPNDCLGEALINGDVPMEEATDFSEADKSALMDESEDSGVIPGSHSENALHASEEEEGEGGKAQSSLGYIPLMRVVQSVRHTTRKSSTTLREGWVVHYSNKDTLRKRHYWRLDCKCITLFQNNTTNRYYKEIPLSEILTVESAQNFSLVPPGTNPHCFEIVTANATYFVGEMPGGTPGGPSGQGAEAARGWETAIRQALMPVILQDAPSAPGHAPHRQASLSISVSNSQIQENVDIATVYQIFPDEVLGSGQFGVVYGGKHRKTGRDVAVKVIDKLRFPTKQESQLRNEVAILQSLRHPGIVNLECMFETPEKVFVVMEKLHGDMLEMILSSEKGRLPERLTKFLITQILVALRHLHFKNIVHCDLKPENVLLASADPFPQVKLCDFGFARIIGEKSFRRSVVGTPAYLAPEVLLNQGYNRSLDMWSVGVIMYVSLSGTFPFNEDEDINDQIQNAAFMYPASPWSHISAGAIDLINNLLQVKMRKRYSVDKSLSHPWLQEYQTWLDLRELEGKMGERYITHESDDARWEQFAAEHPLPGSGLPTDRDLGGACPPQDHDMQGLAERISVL

[5] = biological target: Ribosomal protein S6 kinase alpha-5 (Homo sapiens) (UniProt O75582); assay: Selectivity interaction (Kinase screening (Nanosyn)) EUB0000604a RPS6KA5
[6] = biological target: Serine/threonine-protein kinase MARK2 (Homo sapiens) (UniProt Q7KZI7); assay: Selectivity interaction (Millipore kinase profiler) EUB0000124b MARK2; details: at 10 µM
Chain of Serine/threonine-protein kinase MARK2 (Homo sapiens) (Q7KZI7 whole entry): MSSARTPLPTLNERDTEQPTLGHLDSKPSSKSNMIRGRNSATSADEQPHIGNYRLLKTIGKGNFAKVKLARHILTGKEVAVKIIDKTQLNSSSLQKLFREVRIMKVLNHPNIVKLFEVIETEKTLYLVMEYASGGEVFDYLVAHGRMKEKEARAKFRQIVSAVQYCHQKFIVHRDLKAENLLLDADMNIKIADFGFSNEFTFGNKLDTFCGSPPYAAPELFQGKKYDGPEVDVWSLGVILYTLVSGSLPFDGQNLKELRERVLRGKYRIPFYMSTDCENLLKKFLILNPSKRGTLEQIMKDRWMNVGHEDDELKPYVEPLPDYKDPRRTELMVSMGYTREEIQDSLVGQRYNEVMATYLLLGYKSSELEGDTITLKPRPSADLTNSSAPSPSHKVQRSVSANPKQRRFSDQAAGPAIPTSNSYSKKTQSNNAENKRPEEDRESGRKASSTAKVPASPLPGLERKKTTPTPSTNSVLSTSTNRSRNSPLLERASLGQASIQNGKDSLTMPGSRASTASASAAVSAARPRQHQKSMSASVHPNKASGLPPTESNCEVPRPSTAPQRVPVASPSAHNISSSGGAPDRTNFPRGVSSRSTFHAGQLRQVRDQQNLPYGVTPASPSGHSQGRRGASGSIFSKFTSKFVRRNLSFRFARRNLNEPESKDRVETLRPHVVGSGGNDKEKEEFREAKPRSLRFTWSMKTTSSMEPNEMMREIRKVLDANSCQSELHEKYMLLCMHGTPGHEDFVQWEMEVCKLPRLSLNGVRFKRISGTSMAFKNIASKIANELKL

Chain of Ribosomal protein S6 kinase alpha-5 (Homo sapiens) (O75582 whole entry, looked up): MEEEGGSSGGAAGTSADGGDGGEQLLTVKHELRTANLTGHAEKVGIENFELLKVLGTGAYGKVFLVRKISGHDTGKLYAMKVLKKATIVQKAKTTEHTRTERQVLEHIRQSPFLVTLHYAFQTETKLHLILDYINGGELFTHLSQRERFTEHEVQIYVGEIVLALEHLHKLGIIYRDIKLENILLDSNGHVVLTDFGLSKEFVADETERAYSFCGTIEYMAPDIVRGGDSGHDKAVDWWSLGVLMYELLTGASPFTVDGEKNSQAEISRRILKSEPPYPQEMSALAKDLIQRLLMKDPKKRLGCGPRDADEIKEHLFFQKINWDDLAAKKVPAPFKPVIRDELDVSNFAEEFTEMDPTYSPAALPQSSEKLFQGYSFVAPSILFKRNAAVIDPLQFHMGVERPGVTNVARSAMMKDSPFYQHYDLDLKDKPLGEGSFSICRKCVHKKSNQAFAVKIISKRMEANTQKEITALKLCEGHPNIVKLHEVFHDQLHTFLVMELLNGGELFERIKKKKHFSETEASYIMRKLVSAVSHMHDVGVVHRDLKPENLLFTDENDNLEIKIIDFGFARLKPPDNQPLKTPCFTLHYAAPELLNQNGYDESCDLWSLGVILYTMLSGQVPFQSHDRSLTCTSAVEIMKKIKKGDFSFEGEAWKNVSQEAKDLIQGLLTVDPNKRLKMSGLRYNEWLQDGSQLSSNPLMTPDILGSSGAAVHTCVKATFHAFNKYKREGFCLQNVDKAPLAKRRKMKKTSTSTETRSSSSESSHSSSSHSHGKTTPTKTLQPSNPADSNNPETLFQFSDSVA

CC[C@@H]1[C@H](F)C(=O)N[C@@H]1COc1nccc2cc(C(N)=O)c(OC)cc12 [ZIMLOVISERTIB]
% of inhibition [1]: 8.31%
% of inhibition [2]: 10.2%
% of inhibition [3]: 2.66%

COCC(=O)NC/C=C/c1ccc2ncnc(Nc3ccc(Oc4ccc(C)nc4)c(C)c3)c2c1 [CP-724714]
% of control [4]: 97%

Cc1cnc(Nc2ccc(F)cc2Cl)nc1-c1c[nH]c(C(=O)N[C@H](CO)c2cccc(Cl)c2)c1
% of inhibition [5]: 7%

CC(=O)Nc1cccc(-n2c(=O)n(C3CC3)c(=O)c3c(Nc4ccc(I)cc4F)n(C)c(=O)c(C)c32)c1
% of control [6]: 116%
